The values that follow come from patent publication US20070274956A1, “Plant Germination Inhibitor And Method Of Use Thereof” (priority 2004, published 2007).

SMILES strings stand for the structures.

The data set has as its system Oryzias latipes var. Nature of the data set: Harm to fish grown in treated water. Particulars: 10 males and 10 females grown in aqueous solution, 1×10^−2 g/l; one week. It is filed as in vivo. Here is the method: Forty Oryzias latipes var. (20 males and 20 females) were divided into two groups (each group: 10 males and 10 females). One group was grown in an aqueous solution of the coloring matter xylindein (1×10^−2 g/l) and the other was grown in water in the presence of wood on which mycelia of Chlorociboria aeruginosa developed and which was rotten and stained blue.

As for `CCC[C@H]1Cc2c(c(O)c3c(=O)cc4oc5c6c(c(O)c7c(=O)cc8oc2c3c4c8c57)C(=O)O[C@@H](CCC)C6)C(=O)O1` [xylindein], the “anomaly in the fish” value is listed as “no anomaly was observed”.
